Results taken from the kinase profiling compilation of Christmann-Franck et al. (2016).

Key:
Assay in all cases: KINOMEscan competition binding
Conditions in all cases: compound 1.0 µM
BRSK2 (human) = BRSK2 (human) (UniProt Q8IWQ3)
ACVR2B (human) = ACVR2B (human) (UniProt Q13705)
[1] = system: PIK3CA (human), P42336 [H1047L]
PHKG2 (human) = PHKG2 (human) (UniProt P15735)
MYO3A (human) = MYO3A (human) (UniProt Q8NEV4)
NEK6 (human) = NEK6 (human) (UniProt Q9HC98)
PAK4 (human) = PAK4 (human) (UniProt O96013)
PKMYT1 (human) = PKMYT1 (human) (UniProt Q99640)
CSNK1D (human) = CSNK1D (human) (UniProt P48730)
PRKCI (human) = PRKCI (human) (UniProt P41743)
[2] = system: FLT3 (human), P36888 [K663Q]
SRPK3 (human) = SRPK3 (human) (UniProt Q9UPE1)
Sequence of SRPK3 (human) (Q9UPE1 whole entry, looked up): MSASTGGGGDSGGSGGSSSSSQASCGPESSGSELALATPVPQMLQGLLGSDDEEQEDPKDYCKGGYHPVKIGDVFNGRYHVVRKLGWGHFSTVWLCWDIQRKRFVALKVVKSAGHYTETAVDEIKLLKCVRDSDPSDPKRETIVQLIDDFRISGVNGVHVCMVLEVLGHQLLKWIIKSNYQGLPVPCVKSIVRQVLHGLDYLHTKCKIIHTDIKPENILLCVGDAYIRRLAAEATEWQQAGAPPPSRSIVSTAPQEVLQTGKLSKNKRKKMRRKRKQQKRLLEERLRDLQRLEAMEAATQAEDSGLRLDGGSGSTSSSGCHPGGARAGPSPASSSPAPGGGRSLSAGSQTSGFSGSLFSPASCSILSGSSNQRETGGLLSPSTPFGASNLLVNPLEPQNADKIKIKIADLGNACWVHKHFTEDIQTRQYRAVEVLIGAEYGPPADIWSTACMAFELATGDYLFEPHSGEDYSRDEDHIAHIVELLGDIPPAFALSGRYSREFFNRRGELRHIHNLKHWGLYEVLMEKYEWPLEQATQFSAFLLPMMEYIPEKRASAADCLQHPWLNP

RPS6KA4 KD2 (human) = RPS6KA4 KD2 (human) (UniProt O75676)
CDK4 CCND3 (human) = CDK4 CCND3 (human) (UniProt P11802+P30281)
CASK (human) = CASK (human) (UniProt O14936)
[3] = molecular target: JAK3 JH1 catalytic (human) (UniProt P52333)
TBK1 (human) = TBK1 (human) (UniProt Q9UHD2)
FGFR2 (human) = FGFR2 (human) (UniProt P21802)
Sequence of FGFR2 (human) (P21802 whole entry, looked up): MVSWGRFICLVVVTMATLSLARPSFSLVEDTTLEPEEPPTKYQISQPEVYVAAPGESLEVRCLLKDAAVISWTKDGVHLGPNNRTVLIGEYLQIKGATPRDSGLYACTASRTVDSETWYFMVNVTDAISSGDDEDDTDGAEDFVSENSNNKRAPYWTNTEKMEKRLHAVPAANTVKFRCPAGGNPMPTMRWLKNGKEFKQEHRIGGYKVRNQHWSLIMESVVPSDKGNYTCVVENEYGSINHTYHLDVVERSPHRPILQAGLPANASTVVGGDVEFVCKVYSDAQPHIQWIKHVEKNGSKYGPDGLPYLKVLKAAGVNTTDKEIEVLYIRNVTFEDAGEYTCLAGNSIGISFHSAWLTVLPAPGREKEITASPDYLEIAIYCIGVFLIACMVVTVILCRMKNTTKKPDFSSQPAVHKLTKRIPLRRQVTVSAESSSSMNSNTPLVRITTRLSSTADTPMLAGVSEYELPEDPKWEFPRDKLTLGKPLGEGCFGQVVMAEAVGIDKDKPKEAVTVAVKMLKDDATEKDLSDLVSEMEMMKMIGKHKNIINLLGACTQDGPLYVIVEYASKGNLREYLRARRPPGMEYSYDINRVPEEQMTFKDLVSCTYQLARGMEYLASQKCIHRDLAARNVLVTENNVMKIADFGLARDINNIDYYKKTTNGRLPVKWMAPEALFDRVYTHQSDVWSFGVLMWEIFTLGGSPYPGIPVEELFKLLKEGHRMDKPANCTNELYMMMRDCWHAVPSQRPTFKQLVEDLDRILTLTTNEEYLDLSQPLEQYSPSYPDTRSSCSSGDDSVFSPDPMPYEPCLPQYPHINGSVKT

EPHA5 (human) = EPHA5 (human) (UniProt P54756)
AXL (human) = AXL (human) (UniProt P30530)
Sequence of AXL (human) (P30530 whole entry, looked up): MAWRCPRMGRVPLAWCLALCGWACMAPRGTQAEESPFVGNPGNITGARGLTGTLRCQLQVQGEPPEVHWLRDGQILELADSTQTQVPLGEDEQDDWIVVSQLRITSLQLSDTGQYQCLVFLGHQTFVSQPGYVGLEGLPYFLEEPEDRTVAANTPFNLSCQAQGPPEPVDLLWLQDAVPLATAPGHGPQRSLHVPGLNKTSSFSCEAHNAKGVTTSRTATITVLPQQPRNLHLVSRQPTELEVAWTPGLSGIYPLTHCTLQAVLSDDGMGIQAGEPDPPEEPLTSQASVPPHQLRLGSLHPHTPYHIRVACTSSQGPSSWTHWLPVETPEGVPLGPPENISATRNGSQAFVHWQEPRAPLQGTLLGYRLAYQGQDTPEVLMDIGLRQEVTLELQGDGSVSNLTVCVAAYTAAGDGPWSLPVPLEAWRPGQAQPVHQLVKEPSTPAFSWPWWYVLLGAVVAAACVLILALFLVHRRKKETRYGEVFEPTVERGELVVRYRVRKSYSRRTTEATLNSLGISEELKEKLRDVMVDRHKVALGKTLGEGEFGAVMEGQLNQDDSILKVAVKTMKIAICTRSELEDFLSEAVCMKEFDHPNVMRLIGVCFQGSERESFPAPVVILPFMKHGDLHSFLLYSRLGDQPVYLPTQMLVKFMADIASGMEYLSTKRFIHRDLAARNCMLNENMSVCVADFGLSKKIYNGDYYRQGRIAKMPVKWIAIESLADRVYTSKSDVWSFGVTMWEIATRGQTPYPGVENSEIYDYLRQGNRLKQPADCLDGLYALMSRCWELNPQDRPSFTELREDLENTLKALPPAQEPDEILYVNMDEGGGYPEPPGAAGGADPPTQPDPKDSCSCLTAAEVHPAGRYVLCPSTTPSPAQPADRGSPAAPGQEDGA

EPHA8 (human) = EPHA8 (human) (UniProt P29322)
AKT3 (human) = AKT3 (human) (UniProt Q9Y243)
MAPK6 (human) = MAPK6 (human) (UniProt Q16659)
RPS6KA1 KD2 (human) = RPS6KA1 KD2 (human) (UniProt Q15418)
FGFR3 (human) = FGFR3 (human) (UniProt P22607)
Sequence of FGFR3 (human) (P22607 whole entry, looked up): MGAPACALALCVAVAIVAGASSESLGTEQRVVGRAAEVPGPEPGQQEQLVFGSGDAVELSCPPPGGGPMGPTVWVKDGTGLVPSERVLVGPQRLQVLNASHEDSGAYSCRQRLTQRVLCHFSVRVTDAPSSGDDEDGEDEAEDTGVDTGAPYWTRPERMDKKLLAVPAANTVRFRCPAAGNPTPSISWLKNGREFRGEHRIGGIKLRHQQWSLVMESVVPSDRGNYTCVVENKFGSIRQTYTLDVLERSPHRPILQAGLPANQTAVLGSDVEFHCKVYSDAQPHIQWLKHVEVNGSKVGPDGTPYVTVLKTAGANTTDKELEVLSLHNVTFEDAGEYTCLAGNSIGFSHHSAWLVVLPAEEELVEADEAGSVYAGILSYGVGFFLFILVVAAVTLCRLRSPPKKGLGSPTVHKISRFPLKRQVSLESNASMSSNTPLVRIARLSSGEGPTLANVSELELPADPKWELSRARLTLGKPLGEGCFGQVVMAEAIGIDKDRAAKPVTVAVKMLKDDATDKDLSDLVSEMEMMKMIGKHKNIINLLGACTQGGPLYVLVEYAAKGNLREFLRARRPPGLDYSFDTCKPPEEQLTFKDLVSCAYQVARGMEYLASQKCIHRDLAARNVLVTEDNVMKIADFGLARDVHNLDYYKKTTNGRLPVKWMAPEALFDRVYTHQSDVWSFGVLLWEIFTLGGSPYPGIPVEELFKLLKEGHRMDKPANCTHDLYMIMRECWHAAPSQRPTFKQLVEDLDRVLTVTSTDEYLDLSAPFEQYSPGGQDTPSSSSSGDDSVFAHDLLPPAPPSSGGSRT

EIF2AK2 (human) = EIF2AK2 (human) (UniProt P19525)
MAP2K2 (human) = MAP2K2 (human) (UniProt P36507)
Sequence of MAP2K2 (human) (P36507 whole entry, looked up): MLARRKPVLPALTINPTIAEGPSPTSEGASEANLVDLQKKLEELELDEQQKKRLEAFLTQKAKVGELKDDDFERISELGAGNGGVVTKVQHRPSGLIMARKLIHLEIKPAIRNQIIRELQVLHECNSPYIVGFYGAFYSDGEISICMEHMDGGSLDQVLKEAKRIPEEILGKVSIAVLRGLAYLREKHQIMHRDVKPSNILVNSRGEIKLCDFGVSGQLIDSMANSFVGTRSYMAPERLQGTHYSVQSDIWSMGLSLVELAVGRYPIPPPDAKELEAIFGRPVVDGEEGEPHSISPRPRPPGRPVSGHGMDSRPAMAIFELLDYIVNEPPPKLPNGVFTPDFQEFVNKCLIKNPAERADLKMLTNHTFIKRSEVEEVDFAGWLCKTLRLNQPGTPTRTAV

RIOK1 (human) = RIOK1 (human) (UniProt Q9BRS2)
Sequence of RIOK1 (human) (Q9BRS2 whole entry, looked up): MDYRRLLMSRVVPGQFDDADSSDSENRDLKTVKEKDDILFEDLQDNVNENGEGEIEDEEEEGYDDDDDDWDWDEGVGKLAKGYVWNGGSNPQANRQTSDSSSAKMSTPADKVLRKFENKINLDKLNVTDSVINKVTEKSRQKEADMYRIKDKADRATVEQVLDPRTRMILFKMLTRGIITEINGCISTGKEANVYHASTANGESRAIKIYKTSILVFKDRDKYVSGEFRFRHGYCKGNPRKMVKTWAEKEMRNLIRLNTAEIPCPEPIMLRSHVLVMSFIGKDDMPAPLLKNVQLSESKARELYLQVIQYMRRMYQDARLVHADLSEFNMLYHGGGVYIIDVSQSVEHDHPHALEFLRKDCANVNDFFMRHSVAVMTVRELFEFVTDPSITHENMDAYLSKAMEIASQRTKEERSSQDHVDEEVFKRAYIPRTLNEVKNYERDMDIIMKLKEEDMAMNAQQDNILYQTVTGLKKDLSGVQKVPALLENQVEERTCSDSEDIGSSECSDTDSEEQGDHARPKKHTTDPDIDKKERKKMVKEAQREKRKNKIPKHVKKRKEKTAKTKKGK

MAP4K5 (human) = MAP4K5 (human) (UniProt Q9Y4K4)
NEK5 (human) = NEK5 (human) (UniProt Q6P3R8)
PRKCE (human) = PRKCE (human) (UniProt Q02156)
PAK7 (human) = PAK7 (human) (UniProt Q9P286)
CLK1 (human) = CLK1 (human) (UniProt P49759)
RPS6KA3 KD1 (human) = RPS6KA3 KD1 (human) (UniProt P51812)
MAPK8 (human) = MAPK8 (human) (UniProt P45983)
Sequence of MAPK8 (human) (P45983 whole entry, looked up): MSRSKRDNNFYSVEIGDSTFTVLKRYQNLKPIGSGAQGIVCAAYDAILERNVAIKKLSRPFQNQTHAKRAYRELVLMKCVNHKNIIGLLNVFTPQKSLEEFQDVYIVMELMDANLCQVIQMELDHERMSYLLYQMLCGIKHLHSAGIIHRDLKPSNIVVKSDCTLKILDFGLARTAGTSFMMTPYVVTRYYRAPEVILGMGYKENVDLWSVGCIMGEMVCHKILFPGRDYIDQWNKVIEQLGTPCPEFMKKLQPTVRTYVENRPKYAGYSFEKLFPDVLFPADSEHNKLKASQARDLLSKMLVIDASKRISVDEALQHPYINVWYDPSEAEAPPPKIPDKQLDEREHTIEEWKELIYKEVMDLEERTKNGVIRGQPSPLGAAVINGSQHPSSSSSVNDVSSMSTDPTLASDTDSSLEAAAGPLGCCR

MAP3K1 (human) = MAP3K1 (human) (UniProt Q13233)
CHEK1 (human) = CHEK1 (human) (UniProt O14757)
[4] = system: KIT (human), P10721 [D816V]
BUB1 (human) = BUB1 (human) (UniProt O43683)

Sequence of ACVR2B (human) (Q13705 whole entry, looked up): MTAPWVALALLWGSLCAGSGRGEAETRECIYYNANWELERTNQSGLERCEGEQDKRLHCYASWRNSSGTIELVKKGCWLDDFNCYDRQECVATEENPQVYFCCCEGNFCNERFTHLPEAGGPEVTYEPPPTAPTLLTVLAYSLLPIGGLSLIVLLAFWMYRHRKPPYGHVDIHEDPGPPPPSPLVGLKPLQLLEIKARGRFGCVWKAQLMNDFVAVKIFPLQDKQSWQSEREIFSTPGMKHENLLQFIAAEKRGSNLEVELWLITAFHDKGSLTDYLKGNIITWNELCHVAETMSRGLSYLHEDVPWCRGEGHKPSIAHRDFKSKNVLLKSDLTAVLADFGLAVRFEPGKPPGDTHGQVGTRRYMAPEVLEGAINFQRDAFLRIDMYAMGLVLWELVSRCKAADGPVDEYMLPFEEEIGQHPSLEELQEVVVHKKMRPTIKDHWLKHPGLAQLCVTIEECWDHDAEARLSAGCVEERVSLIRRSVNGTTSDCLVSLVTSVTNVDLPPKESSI

CNc1nc(Nc2ccc(C(=O)N3CCOCC3)cc2OC)ncc1Cl
kinase still bound, per cent of control (BRSK2 (human)): 51% | kinase still bound, per cent of control (ACVR2B (human)): 65% | kinase still bound, per cent of control [1]: 100% | kinase still bound, per cent of control (PHKG2 (human)): 58% | kinase still bound, per cent of control (MYO3A (human)): 63% | kinase still bound, per cent of control (NEK6 (human)): 100% | kinase still bound, per cent of control (PAK4 (human)): 100% | kinase still bound, per cent of control (PKMYT1 (human)): 97% | residual activity (CSNK1D (human)): 100% | kinase still bound, per cent of control (PRKCI (human)): 100% | kinase still bound, per cent of control [2]: 53% | kinase still bound, per cent of control (SRPK3 (human)): 64% | kinase still bound, per cent of control (RPS6KA4 KD2 (human)): 23% | residual activity (CDK4 CCND3 (human)): 36% | kinase still bound, per cent of control (CASK (human)): 97% | kinase still bound, per cent of control [3]: 90% | kinase still bound, per cent of control (TBK1 (human)): 100% | kinase still bound, per cent of control (FGFR2 (human)): 100% | kinase still bound, per cent of control (EPHA5 (human)): 100% | kinase still bound, per cent of control (AXL (human)): 97% | kinase still bound, per cent of control (EPHA8 (human)): 100% | kinase still bound, per cent of control (AKT3 (human)): 81% | kinase still bound, per cent of control (MAPK6 (human)): 100% | kinase still bound, per cent of control (RPS6KA1 KD2 (human)): 88% | kinase still bound, per cent of control (FGFR3 (human)): 100% | kinase still bound, per cent of control (EIF2AK2 (human)): 100% | kinase still bound, per cent of control (MAP2K2 (human)): 84% | kinase still bound, per cent of control (RIOK1 (human)): 95% | kinase still bound, per cent of control (MAP4K5 (human)): 73% | kinase still bound, per cent of control (NEK5 (human)): 100% | kinase still bound, per cent of control (PRKCE (human)): 86% | kinase still bound, per cent of control (PAK7 (human)): 62% | kinase still bound, per cent of control (CLK1 (human)): 100% | kinase still bound, per cent of control (RPS6KA3 KD1 (human)): 100% | kinase still bound, per cent of control (MAPK8 (human)): 44% | kinase still bound, per cent of control (MAP3K1 (human)): 65% | kinase still bound, per cent of control (CHEK1 (human)): 100% | kinase still bound, per cent of control [4]: 98% | kinase still bound, per cent of control (BUB1 (human)): 100%
